Data from PubChem BioAssay AID1919001 (Molecular Pharmacology Branch, DTP, NCI, 2023).
Values joined by “and” are separate entries in the source; they are usually repeats but may differ in a detail not shown here. Equal values may be shown once.

Tested on: 699152-130-R-J1-PDC complex spheroid growth
Experiment: Anticancer human tumor 699152-130-R-J1-PDC patient-derived pancreatic carcinoma cell line growth inhibition [AhR]
Details: for viability, T/C: stronger effect = lower value
Summary of the method: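 Agents were dosed in half-log steps down from roughly clinical Cmax, or from 10 microM where Cmax was unknown, alone and with AhR antagonists. Read-out: percent test/control growth of tumor spheroids containing HUVEC and MSC stromal cells.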

[1] = curve of first compound, second compound 0.1 µM
[2] = curve of first compound, second compound 0.316 µM
[3] = curve of first compound, second compound 1 µM
[4] = curve of first compound, second compound 3.16 µM
[5] = curve of first compound, second compound 10 µM
[6] = second compound 0.1 µM, first compound 0.0316 µM
[7] = second compound 0.1 µM, first compound 0.1 µM
[8] = second compound 0.316 µM, first compound 0.0316 µM
[9] = second compound 0.316 µM, first compound 0.1 µM
[10] = second compound 1 µM, first compound 0.0316 µM
[11] = second compound 1 µM, first compound 0.1 µM
[12] = second compound 3.16 µM, first compound 0.0316 µM
[13] = second compound 3.16 µM, first compound 0.1 µM
[14] = second compound 10 µM, first compound 0.0316 µM
[15] = second compound 10 µM, first compound 0.1 µM
[16] = second compound 0.1 µM, first compound 0.316 µM
[17] = second compound 0.1 µM, first compound 1 µM
[18] = second compound 0.1 µM, first compound 3.16 µM
[19] = second compound 0.1 µM, first compound 10 µM
[20] = second compound 0.316 µM, first compound 0.316 µM
[21] = second compound 0.316 µM, first compound 1 µM
[22] = second compound 0.316 µM, first compound 3.16 µM
[23] = second compound 0.316 µM, first compound 10 µM
[24] = second compound 1 µM, first compound 0.316 µM
[25] = second compound 1 µM, first compound 1 µM
[26] = second compound 1 µM, first compound 3.16 µM
[27] = second compound 1 µM, first compound 10 µM
[28] = second compound 3.16 µM, first compound 0.316 µM
[29] = second compound 3.16 µM, first compound 1 µM
[30] = second compound 3.16 µM, first compound 3.16 µM
[31] = second compound 3.16 µM, first compound 10 µM
[32] = second compound 10 µM, first compound 0.316 µM
[33] = second compound 10 µM, first compound 1 µM
[34] = second compound 10 µM, first compound 3.16 µM
[35] = second compound 10 µM, first compound 10 µM
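Further: compound exposure lasted 7 days after spheroids had grown for 3 days.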

Row | Compound | IC50 [1] | IC50 [2] | IC50 [3] | IC50 [4] | IC50 [5] | viability, T/C [6] | viability, T/C [7] | viability, T/C [8] | viability, T/C [9] | viability, T/C [10] | viability, T/C [11] | viability, T/C [12] | viability, T/C [13] | viability, T/C [14] | viability, T/C [15] | viability, T/C [16] | viability, T/C [17] | viability, T/C [18] | viability, T/C [19] | viability, T/C [20] | other results
1 | CC[C@@]1(O)C(=O)OCc2c1cc1n(c2=O)Cc2cc3c(CN(C)C)c(O)ccc3nc2-1 + Cc1ccccc1N=Nc1ccc(NC(=O)c2ccnn2C)c(C)c1 | > 0.1 µM | 0.075 µM | > 0.1 µM | > 0.1 µM | > 0.1 µM | 68.8% | 55.1% | 63.5% | 45.5% | 60.5% | 50.6% | 60.9% | 54.3% | 70% | 50.8% |  |  |  |  |  | viability, T/C (second compound 0.1 µM, first compound 0.000316 µM): 95.9%; viability, T/C (second compound 0.1 µM, first compound 0.001 µM): 99%; viability, T/C (second compound 0.1 µM, first compound 0.00316 µM): 101%; viability, T/C (second compound 0.1 µM, first compound 0.01 µM): 82.7%; viability, T/C (second compound 0.316 µM, first compound 0.000316 µM): 97.9%; viability, T/C (second compound 0.316 µM, first compound 0.001 µM): 94%; viability, T/C (second compound 0.316 µM, first compound 0.00316 µM): 99.6%; viability, T/C (second compound 0.316 µM, first compound 0.01 µM): 80.1%; viability, T/C (second compound 1 µM, first compound 0.000316 µM): 94.2%; viability, T/C (second compound 1 µM, first compound 0.001 µM): 98.1%; viability, T/C (second compound 1 µM, first compound 0.00316 µM): 94.2%; viability, T/C (second compound 1 µM, first compound 0.01 µM): 77.9%; viability, T/C (second compound 3.16 µM, first compound 0.000316 µM): 96.2%; viability, T/C (second compound 3.16 µM, first compound 0.001 µM): 105%; viability, T/C (second compound 3.16 µM, first compound 0.00316 µM): 92.9%; viability, T/C (second compound 3.16 µM, first compound 0.01 µM): 86.5%; viability, T/C (second compound 10 µM, first compound 0.000316 µM): 107%; viability, T/C (second compound 10 µM, first compound 0.001 µM): 117%; viability, T/C (second compound 10 µM, first compound 0.00316 µM): 86.6%; viability, T/C (second compound 10 µM, first compound 0.01 µM): 82.7%
2 | Nc1ccn(C2OC(CO)C(O)C2(F)F)c(=O)n1 (centres undefined) |  |  |  |  |  |  |  |  |  |  |  |  |  |  |  |  |  |  |  |  | viability, T/C (compound 0.0316 µM): 74.1% and 75.2% and 60.5%; viability, T/C (compound 0.1 µM): 65.7% and 65.9% and 56.8%; viability, T/C (compound 0.316 µM): 48.5% and 56.9% and 47.4%; viability, T/C (compound 1 µM): 51.8% and 50.9% and 45.2%; viability, T/C (compound 3.16 µM): 42.4% and 53.5% and 42.6%; viability, T/C (compound 10 µM): 39.8% and 48.5% and 36.5%
3 | Nc1ccccc1NC(=O)c1ccc(CNC(=O)OCc2cccnc2)cc1 + CC(CO)NC(=O)c1cc(-c2ccc(Cl)cc2)nn(-c2cnn(C)c2)c1=O | 8.23 µM | 6.81 µM | 7.78 µM | 7.59 µM | 6.07 µM | 98.3% | 99.1% | 97.3% | 110% | 97.7% | 91.4% | 90.2% | 84.7% | 96% | 88% | 99.3% | 99.2% | 72.6% | 45.4% | 107% | viability, T/C [21]: 91.3%; viability, T/C [22]: 78%; viability, T/C [23]: 36.5%; viability, T/C [24]: 98.4%; viability, T/C [25]: 92.9%; viability, T/C [26]: 71%; viability, T/C [27]: 44.1%; viability, T/C [28]: 97.2%; viability, T/C [29]: 82.2%; viability, T/C [30]: 74.1%; viability, T/C [31]: 42.4%; viability, T/C [32]: 86.1%; viability, T/C [33]: 83.7%; viability, T/C [34]: 70.8%; viability, T/C [35]: 34.4%
4 | Nc1ccn(C2OC(CO)C(O)C2(F)F)c(=O)n1 (centres undefined) + Cc1ccccc1N=Nc1ccc(NC(=O)c2ccnn2C)c(C)c1 | 0.156 µM | 0.47 µM | 0.39 µM | 0.458 µM | 1.74 µM | 52.3% | 55.2% | 57.9% | 58.4% | 68.2% | 58.7% | 58.6% | 57.1% | 74.9% | 61.9% | 43.9% | 45.8% | 39.6% | 33.9% | 52.1% | viability, T/C [21]: 46.8%; viability, T/C [22]: 40.1%; viability, T/C [23]: 41.6%; viability, T/C [24]: 50.2%; viability, T/C [25]: 46.4%; viability, T/C [26]: 44.2%; viability, T/C [27]: 43.1%; viability, T/C [28]: 48.4%; viability, T/C [29]: 48.3%; viability, T/C [30]: 44.5%; viability, T/C [31]: 39.5%; viability, T/C [32]: 56.2%; viability, T/C [33]: 51.8%; viability, T/C [34]: 48.5%; viability, T/C [35]: 47.2%
5 | CC1(C)CCC(CN2CCN(c3ccc(C(=O)NS(=O)(=O)c4ccc(NCC5CCOCC5)c([N+](=O)[O-])c4)c(Oc4cnc5[nH]ccc5c4)c3)CC2)=C(c2ccc(Cl)cc2)C1 + Cc1cncc(-c2nc(NCCc3c[nH]c4ccccc34)c3ncn(C(C)C)c3n2)c1 | > 10 µM | > 10 µM | > 10 µM | > 10 µM | < 0.0316 µM | 101% | 111% | 114% | 110% | 127% | 134% | 121% | 127% | 19.8% | 18.4% | 124% | 106% | 109% | 97.4% | 105% | viability, T/C [21]: 107%; viability, T/C [22]: 114%; viability, T/C [23]: 121%; viability, T/C [24]: 127%; viability, T/C [25]: 117%; viability, T/C [26]: 120%; viability, T/C [27]: 128%; viability, T/C [28]: 130%; viability, T/C [29]: 123%; viability, T/C [30]: 125%; viability, T/C [31]: 128%; viability, T/C [32]: 23.2%; viability, T/C [33]: 23.7%; viability, T/C [34]: 27.9%; viability, T/C [35]: 22.8%
6 | COc1cc(Nc2ncc3c(n2)-c2ccc(Cl)cc2C(c2c(F)cccc2OC)=NC3)ccc1C(=O)O + Cc1ccccc1N=Nc1ccc(NC(=O)c2ccnn2C)c(C)c1 | > 10 µM | 6.41 µM | > 10 µM | > 10 µM | > 10 µM | 89.9% | 80.2% | 83.1% | 68.7% | 86.8% | 71.7% | 86.3% | 82.6% | 91.7% | 94.7% | 65.3% | 54.5% | 54.4% | 56.6% | 65.5% | viability, T/C [21]: 59.5%; viability, T/C [22]: 51.7%; viability, T/C [23]: 48.4%; viability, T/C [24]: 74.3%; viability, T/C [25]: 60.5%; viability, T/C [26]: 56.9%; viability, T/C [27]: 51.7%; viability, T/C [28]: 68.9%; viability, T/C [29]: 61.1%; viability, T/C [30]: 54.2%; viability, T/C [31]: 50.1%; viability, T/C [32]: 74.8%; viability, T/C [33]: 64.8%; viability, T/C [34]: 66.8%; viability, T/C [35]: 63.6%
7 | O=C(C=Cc1cccc(S(=O)(=O)Nc2ccccc2)c1)NO |  |  |  |  |  |  |  |  |  |  |  |  |  |  |  |  |  |  |  |  | viability, T/C (compound 0.0316 µM): 107% and 91.2% and 102%; viability, T/C (compound 0.1 µM): 114% and 101% and 110%; viability, T/C (compound 0.316 µM): 106% and 114% and 116%; viability, T/C (compound 1 µM): 106% and 116% and 112%; viability, T/C (compound 3.16 µM): 106% and 107% and 116%; viability, T/C (compound 10 µM): 86.2% and 96.8% and 77.4%; IC50 (curve of compound): > 10 µM
8 | Cc1cncc(-c2nc(NCCc3c[nH]c4ccccc34)c3ncn(C(C)C)c3n2)c1 |  |  |  |  |  |  |  |  |  |  |  |  |  |  |  |  |  |  |  |  | viability, T/C (compound 0.1 µM): 97.9% [middle of 20 runs]
